Results: paper PMC7337386 (bioRxiv, 2020)
Entries after “also recorded” stand apart in the source; their conditions may differ.

Key:
[1] = test system: SARS-CoV-2 (USA_WA1/2020); experiment: SARS-CoV-2 viral cytopathic effect assay; type: cell-based; details: for interaction with nitazoxanide: in combination with nitazoxanide; for interaction with nitazoxanide / interaction with remdesivir: CPE assay; for interaction with remdesivir / interaction with remdesivir at high concentrations: in combination with remdesivir; for maximum rescue of CPE, drug alone: single agent
[2] = cited from earlier work; for time of peak concentration: after oral administration
[3] = test system: SARS-CoV-2; details: single agent; cited from earlier work
[4] = test system: Vero E6 cells
[5] = healthy adults; cited from earlier work

SMILES	interaction with nitazoxanide [1]	interaction with remdesivir [1]	interaction with remdesivir at high concentrations [1]	maximum rescue of CPE, drug alone [1]	time of peak concentration [2]	other results
CCN(CC)Cc1cc(Nc2ccnc3cc(Cl)ccc23)ccc1O [Amodiaquine]	significant synergy; also recorded: notable synergism	strong antagonistic effect	synergize	40–60%	≤ 30 min	half-life [2]: ~ 3 hours; loss of potency in Calu-3 (TMPRSS2+) versus Vero E6 [3]: > 10 fold
CCOC(=O)c1c(CSc2ccccc2)n(C)c2cc(Br)c(O)c(CN(C)C)c12 [Arbidol]	–	–	synergize	–	–	concentrations showing synergism with remdesivir [1]: 3 to 10 µM
OC(c1cc(C(F)(F)F)nc2c(C(F)(F)F)cccc12)C1CCCCN1 (centres unmarked) [Mefloquine]	–	strong antagonistic effect	synergize	–	–	–
CC(=O)Oc1ccccc1C(=O)Nc1ncc([N+](=O)[O-])s1 [Nitazoxanide]	–	–	–	40–60%	–	toxicity ([4]; 10 μM): ~ 20%; cytotoxicity ([4]; concentration below 5 μM): not cytotoxic; tolerability [5]: well tolerated
CCC(CC)COC(=O)[C@H](C)N[P@](=O)(OC[C@H]1O[C@@](C#N)(c2ccc3c(N)ncnn23)[C@H](O)[C@@H]1O)Oc1ccccc1 [Remdesivir]	significant synergy; also recorded: notable synergism	–	–	40–60%	–	–
CCNCc1cc(Nc2ccnc3cc(Cl)ccc23)ccc1O [monodesethyl-amodiaquine]	–	–	–	–	120 min	peak concentration ([2]; after oral administration of amodiaquine): ~ 500 nM; half-life in blood plasma [2]: 220 to 432 h
